From the supplement of paper PMC6718421

System: Caenorhabditis elegans
Assay: animals per well after 6 days (50 L1 seeded); higher = more viable animals (less toxic)
Experimental: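 About 50 synchronized L1s per well were grown in liquid NGM with E. coli HB101 and twofold serial dilutions (0.12-120 uM) of crystal- or sphere-forming wactives for 6 days at 20 C; animals per well were counted, and overgrown wells (>50 animals) were scored as 100. Values are averages of replicate wells for wild type and sms-5(ok2498).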

CCCc1nc(-c2ccc(-c3ccc(F)cc3)cc2)no1 [wact-390]
animals per well
Conditions	genotype: sms-5(ok2498)	genotype: wild type N2
0.1171875 µM	> 100	> 100
0.234375 µM	> 100	> 100
0.46875 µM	> 100	> 100
0.9375 µM	> 100	> 100
1.875 µM	> 100	56.2
3.75 µM	> 100	4.83
7.5 µM	> 100	3.33
15 µM	> 100	2.83
30 µM	> 100	2.33
60 µM	> 100	0.333
120 µM	92.7	0.667
